# Measured values published in US11685741B2, “Fluorescent probes” (University of Massachusetts, priority 2017, dated 2023).
# How the values were obtained:
# zebrafish = test: Zebrafish confocal imaging of free Fe2+; assay type: in vivo
# Experimental: Embryos were collected from natural spawning and raised up in embryo medium (M. Santra, et al. Chem. Commun., 2009, 10, 2115). Zebrafish mutant strain Casper was utilized because it lacks pigment, allowing better visualization (J. A. Lister, et al., Development, 1999, 126, 3757). Zebrafish embryos at 6 days post fertilization (dpf) were incubated with 10 μM NIRh-Fret in embryo media for 1 h at 28° C. In addition, iron (II) loaded zebrafish (100 μM Fe (NH4)2(SO4)2 for 8 hours incubation) were incubated with 10 μM NIRh-Fret in embryo media for 1 h at 28° C. The treated zebrafish were imaged by a LSM710 confocal microscope.
# The ability of NIRh-Fret to detect free Fe^2+ in zebrafish was further investigated using confocal microscopy. […] For Fe^2+ replete conditions, live zebrafish were incubated with 100 μM of ferrous ammonium sulfate (Fe (NH4)2(SO4)2) at 28° C. for 8 h followed by washing with E3 medium to remove excess Fe^2+ and then 10 μM of NIRh-Fret was added to the culture media and was incubated at 28° C. for 30 min.
# In addition, the red-colored region was observed as a well-localized red round spot, being the intestine region of the 6-days-old zebrafish.
# [1] = test system: human fibroblast cells (ws1); test: Confocal imaging of Fe3+ with Rh-PK in ws1 cells; assay type: cell-based
# Experimental: Human SH-SY5Y neuroblastoma cells and primary fibroblast ws1 cells were obtained from ATCC (American Type Culture Collection). Cells were maintained in a 1:1 mixture of Eagle's Minimal Essential medium (ATCC) and Ham's F12 medium (ATCC) supplemented with 10% fetal bovine serum (FBS, ATCC) without antibiotics and incubated at 37° C. in a humidified 5% CO2 atmosphere. The cells were routinely sub-cultured using 0.05% trypsin-EDTA solution (ATCC). The cells were seeded onto 2-chamber slides for 48 h at 5×10^4 cells/chamber and grown until each chamber was 20-30% confluent. A stock solution of Rh-PK ([…] in […]) was diluted to a concentration of […] in culture medium without FBS. […] The fluorescence responses of the sensor in living cells were measured under a Zeiss LSM 710 laser scanning confocal microscope. […] The REUSE function controlled by Zeiss software was applied to guarantee that all spectra were recorded under the same instrumental conditions.
# The ability of Rh-PK to track Fe^3+ in live human fibroblast cells (ws1) was tested via a laser scanning confocal microscope (Zeiss LSM 710). […] Turn on fluorescence was observed, which is likely being triggered by endogenous labile Fe^3+. […]
# FIG. 17A to FIG. 17C show the distribution of exchangeable Fe^3+ pools in live fibroblast cells (ws1). […] FIG. 17A is the Rh-PK-Fe3+ fluorescence intensity collected at 547-703 nm (red). […]
SMILES,"fluorescence of Fe^2+-treated zebrafish versus unsupplemented (zebrafish; 100 μM ferrous ammonium sulfate 8 h, then 10 μM NIRh-Fret 30 min)","fluorescence of zebrafish with sensor only (zebrafish; 6-days-old zebrafish, 10 μM NIRh-Fret)","fluorescence of Fe^3+-loaded cells versus before loading ([1]; 10 μM Rh-PK, cells loaded with 50 μM Fe^3+)","fluorescence response after Fe^3+ pre-depletion ([1]; SIH 100 μM overnight, then Rh-PK)"
"CCN(CC)c1ccc2c(c1)OC1=C(CCC/C1=C\C=C1\N(C)c3ccccc3C1(C)C)C21c2ccccc2C(=O)N1/N=C\C=C\c1ccc(N(C)C)cc1 (stereo not shown) [NIRh-Fret, (E)-6′-(diethylamino)-2-(((1Z,2E)-3-(4-(dimethylamino)phenyl)allylidene)amino)-4′-(2-((E)-1,3,3-trimethylindolin-2-ylidene)ethylidene)-1′,2′,3′,4′-tetrahydrospiro[isoindoline-1,9′-xanthen]-3-one]",significant increase in fluorescent signals,weak fluorescence,,
"CCN(CC)c1ccc2c(c1)Oc1cc(N(CC)CC)ccc1C21c2ccccc2C(=O)N1CC/N=C(\C)c1cccc(C(C)=O)n1 [Rh-PK, (E)-2-(2-((1-(6-acetylpyridin-2-yl)ethylidene)amino)ethyl)-3′,6′-bis(diethylamino)spiro[isoindoline-1,9′-xanthen]-3-one]",,,brighter and more widely distributed fluorescence signals,weaker fluorescence response
